Laboratory results from the NIST ThermoML archive (doi:10.1021/je300762m).
Where “and” joins values, the source holds several entries; their conditions need not be identical. Identical values can stand only once. ± gives the expanded uncertainty stated by the source.

Assays:
[1] = molar heat capacity at constant pressure; settings: Liquid, Large sample (1 g) DSC
[2] = molar heat capacity at constant pressure; xn = mol fraction of the nth substance listed; settings: 100 kPa, Liquid, Large sample (1 g) DSC, x1 = 0.38

CC [ethane]
[1]
Settings	molar heat capacity at constant pressure [J/K/mol]
108.15 K, 1050 kPa	67.9 ± 1.7
108.15 K, 2020 kPa	67.87 ± 1.7
108.15 K, 4290 kPa	67.78 ± 1.7
118.15 K, 1060 kPa	68.26 ± 1.7
118.15 K, 2030 kPa	67.63 ± 1.7
118.15 K, 4290 kPa	68.95 ± 1.7
128.15 K, 4310 kPa	68.65 ± 1.7
143.15 K, 4080 kPa	68.62 ± 1.7
153.15 K, 4070 kPa	69.94 ± 1.7
163.15 K, 4050 kPa	70.84 ± 1.7
188.15 K, 1120 kPa	73.46 ± 1.8
188.15 K, 4310 kPa	72.41 ± 1.8
228.15 K, 1170 kPa	81.04 ± 2
228.15 K, 4320 kPa	80.07 ± 2
238.15 K, 1210 kPa	83.71 ± 2
238.15 K, 4330 kPa	82.72 ± 2

CCCCCCC [heptane]
[1], 100 kPa
Settings	molar heat capacity at constant pressure
228.15 K	202.31 ± 4.9 J/K/mol and 201.51 ± 4.9 J/K/mol
238.15 K	206.22 ± 5 J/K/mol and 205.11 ± 5 J/K/mol
303.15 K	225.96 ± 5.5 J/K/mol and 225.25 ± 5.5 J/K/mol
313.15 K	229.16 ± 5.6 J/K/mol and 230.87 ± 5.6 J/K/mol

C [methane]
[1]
Settings	molar heat capacity at constant pressure [J/K/mol]
108.15 K, 4230 kPa	54.4 ± 1.3
108.15 K, 6300 kPa	54.11 ± 1.3
118.15 K, 4270 kPa	55.54 ± 1.4
118.15 K, 6350 kPa	55.11 ± 1.4
128.15 K, 4330 kPa	57.03 ± 1.4
128.15 K, 6400 kPa	56.66 ± 1.4
143.15 K, 4350 kPa	59.37 ± 1.5
153.15 K, 4340 kPa	63.24 ± 1.6
153.15 K, 6340 kPa	60.98 ± 1.5
163.15 K, 4390 kPa	67.7 ± 1.8
163.15 K, 6470 kPa	64.51 ± 1.7
173.15 K, 4380 kPa	77.87 ± 2.2
173.15 K, 6450 kPa	70.97 ± 1.9

CCC [propane]
[1]
Settings	molar heat capacity at constant pressure [J/K/mol]
108.15 K, 1160 kPa	84.97 ± 2.1
108.15 K, 3680 kPa	86.69 ± 2.1
108.15 K, 5160 kPa	86.65 ± 2.2
108.15 K, 5330 kPa	84.8 ± 2.2
118.15 K, 1170 kPa	84.75 ± 2.1
118.15 K, 3650 kPa	87.09 ± 2.1
118.15 K, 5180 kPa	87.04 ± 2.2
118.15 K, 5430 kPa	85.46 ± 2.2
128.15 K, 1180 kPa	85.28 ± 2.1
128.15 K, 3640 kPa	86.65 ± 2.1
128.15 K, 3670 kPa	86.3 ± 2.1
128.15 K, 5190 kPa	86.56 ± 2.2
128.15 K, 5430 kPa	85.55 ± 2.1
143.15 K, 1130 kPa	86.43 ± 2.1
143.15 K, 3690 kPa	86.69 ± 2.1
143.15 K, 5180 kPa	86.56 ± 2.1
153.15 K, 1190 kPa	87.62 ± 2.2
153.15 K, 5200 kPa	88.68 ± 2.2
163.15 K, 1170 kPa	87.97 ± 2.2
163.15 K, 5210 kPa	89.34 ± 2.2
188.15 K, 1190 kPa	91.15 ± 2.2
188.15 K, 5220 kPa	91.1 ± 2.2
228.15 K, 1150 kPa	98.73 ± 2.4
228.15 K, 3670 kPa	98.42 ± 2.4
228.15 K, 5220 kPa	98.11 ± 2.4
238.15 K, 1110 kPa	101.24 ± 2.5
238.15 K, 3680 kPa	100.71 ± 2.5
238.15 K, 5220 kPa	100.63 ± 2.5
248.15 K, 1160 kPa	103.58 ± 2.6
248.15 K, 3670 kPa	102.17 ± 2.5
248.15 K, 5190 kPa	101.46 ± 2.5
258.15 K, 1160 kPa	105.65 ± 2.6
258.15 K, 3680 kPa	104.11 ± 2.6
258.15 K, 5220 kPa	103.76 ± 2.6

Cc1ccccc1 [toluene]
[1], 100 kPa
Settings	molar heat capacity at constant pressure
228.15 K	138.39 ± 3.4 J/K/mol and 139.13 ± 3.4 J/K/mol
238.15 K	140.79 ± 3.4 J/K/mol and 140.97 ± 3.5 J/K/mol
303.15 K	159.03 ± 3.9 J/K/mol and 157.65 ± 3.9 J/K/mol
313.15 K	162.35 ± 4 J/K/mol and 161.98 ± 4 J/K/mol

Cc1ccccc1 [toluene] + CCCCCCC
[2]
Settings	molar heat capacity at constant pressure [J/K/mol]
228.15 K	166.3 ± 4.1
238.15 K	168.05 ± 4.1
303.15 K	185.24 ± 4.6
313.15 K	189.52 ± 4.7
